Legend:
[1] = system: T47D cells; experiment: Gap junction activity (GJIC), flow cytometry of dye coupling, T47D cells; assay type: cell-based, human
Method: FIG. 4(A) MDA-MB-453 and (B) T47D cells were treated with low (500 nM) and high (10 μM) concentrations of PQs for 24 hours. Monolayers of acceptor cell population were grown on 25-cm flasks in the presence of Vibrant DiD. Vybrant DiD in acceptor cells is not able to pass through the gap junctions because of its hydrophobic property. Single cell suspensions of donor treated cells were prepared, labeled with 0.05 μg/ml calcein-AM, incubated at 37 C for 5 minutes. Quantification of dye coupling between the donor and acceptor cells was assessed by dual-excitation flow cytometry. […] Cells treated with 10 μM PQ3 have approximately 40-50% decrease in gap junction activity compared control or DMSO.

[2] = Solubility in water; assay type: physicochemical; settings: succinic acid salt
[3] = system: T47D cells; experiment: Scrape load/dye transfer (SL/DT) GJIC assay, T47D cells; assay type: cell-based, human
Method: In the experiments for FIG. 9, T47D cells were dosed with 100, 200 and 400 nM of PQ1 for 40 minutes. Lucifer yellow, a gap junctional permeable dye, was used to measure the GJIC. Rhodamine dextran was used as a control. The dotted line in FIG. 9 indicates the line of cut. This increase could be due to the interaction between the PQ1 and the connexin proteins which leads to the opening of the gap junction channel. PQ1 exerted no effect on the cell morphology of T47D cells (data not shown).
Scrape load dye transfer technique (SL/DT): Lucifer yellow is an intensely fluorescent […] dye having low molecular weight (Mr 457.2) and passes from one cell to another through gap junctions only. Rhodamine dextran is a high molecular weight polymer (Mr 10,000) used as a control as passes only through injured plasma membrane. Cells were grown to 90% confluency on cover slips, dosed with PQ 1 for 40 minutes. The 2.5 μl of 1% (w/v) Lucifer yellow and 0.75% (w/v) of Rhodamine dextran was mixed and added in the center of the coverslip. Two cuts crossing each other in the center of the coverslip were made. After three minutes, cells were washed with PBS and incubated at 37° C. in tissue culture media for 20 minutes. Cells were fixed and mounted on a slide, sealed and visualized under a fluorescence microscope at 10× objective.
Intercellular communication in many organs is maintained via GJIC. Several GJIC enhancers have been reported; however, an effective clinical drug targeting gap junction is not available at this time. The effect of PQ1 on the GJIC activity in T47D breast cancer cells was tested. […] Conversely, PQ1 has no effect on GJIC activity of human primary epithelial cells (MEC, normal cells) compared to its controls (data not shown). The distance of dye transfer from section cut to the farthest cells with dye was measured. […] MECs have uniform uptake of Lucifer yellow. This is due to the existing high level of gap junction activity of these normal cells.
Gap Junction Activity. […] Cells were mounted on a slide, sealed and visualized under a fluorescence microscope at 10× objective.

[4] = system: transformed human mammary epithelial cells (HMEC); experiment: Cell proliferation, HMEC; assay type: cell-based
Method: There was no effect seen on the cell proliferation in transformed human mammary epithelial cells (HMEC, data not shown).
MTT assay: This assay is done to measure cell proliferation and viability. Yellow MTT (3-(4,5-Dimethylthiazol-2-yl)-2,5-diphenyltetrazolium bromide, a tetrazole) is reduced to purple crystals, formazan in the mitochondria of living cells. A solubilization solution is added to dissolve the insoluble purple formazan product into a colored solution. The absorbance of this colored solution can be measured by a spectrophotometer. T47 D cells (20,000) were grown in 96-well plate and dosed with 10, 100, 200, 500 nM of PQ1 compound in 100 μl of complete media for 24 hours. MTT (20 μl) was added to the cells and purple formazan crystals were observed after 90 minutes. A solubilization solution (0.35 N HCl) was added to dissolve the formazan and the absorbance was measured at 595 nm wavelength with a background wavelength 690 nm by a spectrophotometer.

[5] = system: R28 cells; experiment: Apoptosis assay, Annexin V-FITC/PI flow cytometry, R28 cells; assay type: cell-based, rat
Source text: (A) Representative flow cytometer images of R28 cells with different treatments of PQ1 and/or CoCl2. The y-axis quantifies the number of cells stained with propidium iodine and the x-axis quantifies number of cells stained with Annexin V-FITC. (B,C) Histogram of % apoptotic cells after treatment with CoCl2 and PQ1. The percentage of apoptotic cells represents cells that are Annexin V-FITC positive and both propidium iodide and Annexin V-FITC positive after different time periods.
Apoptosis assay. Approximately 70% confluent R28Cells in 25 cm2 flasks were treated with PQ1 at 10 μM for 40 min followed by treatment with 500 μM CoCl2 for different time periods to induce apoptosis. After this, cells were harvested and stained with Annexin V-FITC and propidium iodide (PI) according to the manufacturer's protocol (BioVision # K101-100). Annexin V-FITC/PI binding was analyzed by flow cytometry using a BD FACSCalibur system and data was analyzed using the CellQuest software.
The later phase of apoptosis is assessed by measuring the DNA labeling with the PI, an indicator of the cell membrane permeabilization.

SMILES: COc1cc(NCCCN)c2nccc(C)c2c1Oc1cccc(C(F)(F)F)c1.O=C(O)CCC(=O)O [PQ1, 6-Methoxy-8-[(3-aminopropyl)amino]-4-methyl-5-(3-trifluoromethylphenyloxy) quinoline succinic acid]
- increase in GJIC ([1]; FIG. 4, 24 hours): 20-50%
- effect on gap junction intercellular communication ([1]; Table 1, 500 nM): Increase
- solubility in water [2]: soluble in water
- increase in distance of dye transfer ([3]; 200 nM, compared to control): 8.5 fold
- gap junction activity (SL/DT) compared to controls ([3]; 100, 200 and 500 nM): significant increase
- gap junctional activity (SL/DT) ([3]; 200 and 500 nM for 40 minutes): significant increase
- cell proliferation [4]: no effect
- protection from CoCl2-induced apoptosis ([5]; 10 μM PQ1 40 min pre-treatment, then CoCl2 500 μM): protected the cells significantly
- damage to the cells ([5]; 10 μM PQ1 only, 36 h): did not cause any damage
